Reference: patent US20250230149A1, “MGLUR5 MODULATING COMPOUNDS, COMPOSITIONS, AND METHODS OF USE” (Allyx Therapeutics, Inc., priority 2022, published 2025)

What was measured:
Type in all cases: in vitro ADME
P-glycoprotein (P-gp) = target: T1, P-glycoprotein (P-gp) (Homo sapiens, UniProt P08183); test: In vitro inhibition of human transporter P-gp; details: in vitro cell test system; read-out: IC50, inhibition of probe substrate transport via P-gp
T1 construct: host or cells: unspecified cell test systems
Method: (§1) The in vitro potential for Compound 1 Form A to be an inhibitor of the human transporters P-glycoprotein (P-gp), […] (OATP) 1B1 and OATP1B3 was assessed in various in vitro cell test systems, and of BSEP in membrane vesicles.
(§2) A decrease in the transporter-mediated activity of probe substrate in the presence of a positive control inhibitor, determined from incubations run alongside test compound, confirmed that the in vitro test systems were capable of identifying transporter inhibitors.

OATP1B3 = target: T2, OATP1B3 (Homo sapiens, UniProt Q9NPD5); test: In vitro inhibition of human transporter OATP1B3; details: in vitro cell test system; read-out: IC50, inhibition of probe substrate transport via OATP1B3
T2 construct: host or cells: unspecified cell test systems
Method: as §1, §2

CYP1A2 [1] = target: T3, CYP1A2 (Homo sapiens, UniProt P05177); test: CYP450 reaction phenotyping in Supersomes, CYP1A2
T3 construct: purchased
T3 sequence (P05177 1-516): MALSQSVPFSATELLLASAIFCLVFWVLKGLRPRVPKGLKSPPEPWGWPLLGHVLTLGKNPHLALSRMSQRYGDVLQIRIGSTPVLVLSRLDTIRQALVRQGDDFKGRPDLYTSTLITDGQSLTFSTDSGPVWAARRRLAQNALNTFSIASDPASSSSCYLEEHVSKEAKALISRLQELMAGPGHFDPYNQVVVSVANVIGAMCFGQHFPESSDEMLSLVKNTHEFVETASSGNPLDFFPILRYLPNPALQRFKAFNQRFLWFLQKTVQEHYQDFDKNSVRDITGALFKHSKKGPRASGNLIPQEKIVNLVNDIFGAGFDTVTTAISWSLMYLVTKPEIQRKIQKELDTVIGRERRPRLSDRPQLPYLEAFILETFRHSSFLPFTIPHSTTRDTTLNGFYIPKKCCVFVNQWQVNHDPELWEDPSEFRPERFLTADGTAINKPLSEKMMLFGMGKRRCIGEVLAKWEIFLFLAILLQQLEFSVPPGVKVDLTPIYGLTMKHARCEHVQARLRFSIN
Source text: (§3) In Vitro CYP450 Reaction Phenotyping Study in Supersomes™ Over-Expressing Human CYP Enzymes The CYPP450 enzymes involved in the Phase I metabolism of Compound 1 Form A were investigated in vitro. […] No evidence of Compound 1 metabolism by CYP2B6, CYP2C8, CYP2C9 and CYP2C19 was observed.

CYP2C8 = target: T4, CYP2C8 (Homo sapiens, UniProt P10632); test: CYP inhibition in human liver microsomes, CYP2C8
T4 construct: purchased
Source text: (§4) In Vitro CYP Inhibition of CYP1A2, CYP2C8, CYP2C9, CYP2C19, CYP2D6 and CYP3A4 in Human Liver Microsomes This study assessed the potential inhibitory effect of Compound 1 Form A toward CYP1A2, CYP2C8, CYP2C9, CYP2C19, CYP2D6 and CYP3A4. Known inhibitors of each CYP were used as positive controls.

BSEP = BSEP (Homo sapiens, UniProt O95342); test: In vitro inhibition of BSEP in membrane vesicles; details: read-out: IC50, inhibition of probe substrate transport via BSEP
Method: as §1, §2

CYP2D6 [2] = target: T5, CYP2D6 (Homo sapiens, UniProt P10635); test: Metabolism dependent inhibition in human liver microsomes, CYP2D6
T5 construct: purchased
Source text: (§5) In Vitro Metabolite Dependent Inhibition of CYP2D6 and CYP3A4 Study in Human Liver Microsomes
(§6) This study assessed the metabolism dependent inhibition potential of Compound 1 Form A toward CYP3A4 and CYP2D6 in human liver microsomes. Troleandomycin and paroxetine, known metabolism dependent inhibitors of CYP3A4 and CYP2D6, respectively were used as positive controls.

CYP2C9 = target: T6, CYP2C9 (Homo sapiens, UniProt P11712); test: CYP inhibition in human liver microsomes, CYP2C9
T6 construct: purchased
Source text: as §4

CYP1A2 [3] = target: T3, CYP1A2; test: CYP inhibition in human liver microsomes, CYP1A2
Source text: as §4

CYP3A4 [4] = target: T7, CYP3A4 (Homo sapiens, UniProt P08684); test: CYP inhibition in human liver microsomes, CYP3A4
T7 construct: purchased
Source text: as §4

CYP3A4 [5] = target: T7, CYP3A4; test: Metabolism dependent inhibition in human liver microsomes, CYP3A4
Source text: as §5, §6

OATP1B1 = target: T8, OATP1B1 (Homo sapiens, UniProt Q9Y6L6); test: In vitro inhibition of human transporter OATP1B1; details: in vitro cell test system; read-out: IC50, inhibition of probe substrate transport via OATP1B1
T8 construct: host or cells: unspecified cell test systems
Method: as §1, §2

CYP3A4 [6] = target: T7, CYP3A4; test: CYP450 reaction phenotyping in Supersomes, CYP3A4
Source text: as §3

CYP2D6 [7] = target: T5, CYP2D6; test: CYP450 reaction phenotyping in Supersomes, CYP2D6
Source text: as §3

CYP2D6 [8] = target: T5, CYP2D6; test: CYP inhibition in human liver microsomes, CYP2D6
Source text: as §4

CYP2C19 = CYP2C19 (Homo sapiens, UniProt P33261); test: CYP inhibition in human liver microsomes, CYP2C19; parameters: CYP2D6 and CYP3A4 in Human Liver Microsomes; from tissue; host or cells: human liver microsomes
Source text: as §4

T7 sequence (P08684 whole entry): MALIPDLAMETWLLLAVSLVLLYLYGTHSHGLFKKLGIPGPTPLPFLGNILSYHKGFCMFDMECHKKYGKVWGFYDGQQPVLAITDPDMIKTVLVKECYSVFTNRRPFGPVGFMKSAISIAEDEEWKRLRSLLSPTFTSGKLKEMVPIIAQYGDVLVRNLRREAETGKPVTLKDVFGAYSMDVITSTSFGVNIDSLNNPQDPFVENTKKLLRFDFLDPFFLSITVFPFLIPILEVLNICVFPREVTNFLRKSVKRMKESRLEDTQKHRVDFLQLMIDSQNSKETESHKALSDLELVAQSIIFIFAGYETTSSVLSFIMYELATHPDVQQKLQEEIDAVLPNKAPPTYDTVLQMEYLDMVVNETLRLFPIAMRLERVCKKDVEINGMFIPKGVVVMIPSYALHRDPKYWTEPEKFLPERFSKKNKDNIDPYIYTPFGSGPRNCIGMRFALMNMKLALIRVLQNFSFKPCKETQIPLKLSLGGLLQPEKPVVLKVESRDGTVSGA
T5 sequence (P10635 whole entry): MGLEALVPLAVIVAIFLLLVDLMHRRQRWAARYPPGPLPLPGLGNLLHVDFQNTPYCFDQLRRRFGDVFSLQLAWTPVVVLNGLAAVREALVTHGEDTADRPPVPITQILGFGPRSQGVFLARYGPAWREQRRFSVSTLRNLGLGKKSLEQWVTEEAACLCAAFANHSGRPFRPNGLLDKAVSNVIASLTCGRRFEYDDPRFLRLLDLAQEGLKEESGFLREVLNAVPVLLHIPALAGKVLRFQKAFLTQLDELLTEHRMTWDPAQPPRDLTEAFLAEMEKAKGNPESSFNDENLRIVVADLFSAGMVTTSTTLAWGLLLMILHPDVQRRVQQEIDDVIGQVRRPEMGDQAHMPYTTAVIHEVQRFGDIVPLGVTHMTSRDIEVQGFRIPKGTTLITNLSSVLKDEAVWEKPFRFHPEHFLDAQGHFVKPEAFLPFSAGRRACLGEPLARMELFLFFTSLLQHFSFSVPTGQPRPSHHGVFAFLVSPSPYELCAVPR
T2 sequence (Q9NPD5 whole entry): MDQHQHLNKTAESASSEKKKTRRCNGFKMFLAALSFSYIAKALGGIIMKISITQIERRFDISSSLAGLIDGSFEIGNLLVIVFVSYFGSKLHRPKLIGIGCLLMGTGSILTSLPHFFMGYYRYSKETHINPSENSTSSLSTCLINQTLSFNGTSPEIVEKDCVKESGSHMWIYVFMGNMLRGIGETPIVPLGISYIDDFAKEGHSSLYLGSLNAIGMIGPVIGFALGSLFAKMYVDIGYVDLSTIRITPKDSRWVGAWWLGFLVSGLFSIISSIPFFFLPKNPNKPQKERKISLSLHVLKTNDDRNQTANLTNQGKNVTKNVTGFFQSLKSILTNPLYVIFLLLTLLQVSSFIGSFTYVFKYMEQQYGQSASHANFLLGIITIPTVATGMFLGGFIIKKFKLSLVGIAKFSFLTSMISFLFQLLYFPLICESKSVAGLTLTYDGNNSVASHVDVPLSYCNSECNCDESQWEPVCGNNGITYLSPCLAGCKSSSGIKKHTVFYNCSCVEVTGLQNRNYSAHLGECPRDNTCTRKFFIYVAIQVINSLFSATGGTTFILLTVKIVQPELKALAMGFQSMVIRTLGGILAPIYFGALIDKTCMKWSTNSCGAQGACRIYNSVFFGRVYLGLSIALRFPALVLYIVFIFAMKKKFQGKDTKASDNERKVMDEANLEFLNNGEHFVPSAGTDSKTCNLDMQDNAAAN
T1 sequence (P08183 whole entry): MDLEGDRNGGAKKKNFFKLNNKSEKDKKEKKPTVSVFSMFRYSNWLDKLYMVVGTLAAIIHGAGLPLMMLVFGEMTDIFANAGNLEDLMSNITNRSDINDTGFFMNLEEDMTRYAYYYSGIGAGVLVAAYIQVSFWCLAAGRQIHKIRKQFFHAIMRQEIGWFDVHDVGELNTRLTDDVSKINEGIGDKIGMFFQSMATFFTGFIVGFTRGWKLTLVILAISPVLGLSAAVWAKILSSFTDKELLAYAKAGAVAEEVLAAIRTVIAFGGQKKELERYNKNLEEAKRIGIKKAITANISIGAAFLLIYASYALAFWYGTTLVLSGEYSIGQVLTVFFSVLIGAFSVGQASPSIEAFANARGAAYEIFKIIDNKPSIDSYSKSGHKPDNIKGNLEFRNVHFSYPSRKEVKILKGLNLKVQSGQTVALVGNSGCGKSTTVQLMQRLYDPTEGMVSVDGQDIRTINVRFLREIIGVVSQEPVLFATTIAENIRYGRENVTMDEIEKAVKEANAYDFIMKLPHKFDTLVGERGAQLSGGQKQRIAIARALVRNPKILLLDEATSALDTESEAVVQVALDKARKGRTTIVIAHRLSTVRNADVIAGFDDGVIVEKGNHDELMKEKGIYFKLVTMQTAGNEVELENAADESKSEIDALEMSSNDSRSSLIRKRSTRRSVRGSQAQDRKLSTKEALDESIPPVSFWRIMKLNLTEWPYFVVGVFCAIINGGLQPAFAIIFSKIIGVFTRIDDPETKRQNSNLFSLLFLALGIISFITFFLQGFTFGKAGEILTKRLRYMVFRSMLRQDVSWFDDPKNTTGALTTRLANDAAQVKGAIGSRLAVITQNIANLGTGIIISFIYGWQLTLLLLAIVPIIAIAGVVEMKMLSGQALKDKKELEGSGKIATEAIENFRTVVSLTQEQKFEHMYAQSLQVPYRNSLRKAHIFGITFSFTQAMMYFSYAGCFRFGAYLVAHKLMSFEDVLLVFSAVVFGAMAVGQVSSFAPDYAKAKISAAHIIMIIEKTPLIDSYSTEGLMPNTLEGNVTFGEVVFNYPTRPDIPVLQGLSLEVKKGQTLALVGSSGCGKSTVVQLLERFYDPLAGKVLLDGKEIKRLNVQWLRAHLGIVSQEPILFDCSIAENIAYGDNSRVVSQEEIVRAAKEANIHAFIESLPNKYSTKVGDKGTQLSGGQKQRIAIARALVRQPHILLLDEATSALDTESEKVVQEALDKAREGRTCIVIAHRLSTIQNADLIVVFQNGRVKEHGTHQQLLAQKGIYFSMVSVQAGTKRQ
T8 sequence (Q9Y6L6 whole entry): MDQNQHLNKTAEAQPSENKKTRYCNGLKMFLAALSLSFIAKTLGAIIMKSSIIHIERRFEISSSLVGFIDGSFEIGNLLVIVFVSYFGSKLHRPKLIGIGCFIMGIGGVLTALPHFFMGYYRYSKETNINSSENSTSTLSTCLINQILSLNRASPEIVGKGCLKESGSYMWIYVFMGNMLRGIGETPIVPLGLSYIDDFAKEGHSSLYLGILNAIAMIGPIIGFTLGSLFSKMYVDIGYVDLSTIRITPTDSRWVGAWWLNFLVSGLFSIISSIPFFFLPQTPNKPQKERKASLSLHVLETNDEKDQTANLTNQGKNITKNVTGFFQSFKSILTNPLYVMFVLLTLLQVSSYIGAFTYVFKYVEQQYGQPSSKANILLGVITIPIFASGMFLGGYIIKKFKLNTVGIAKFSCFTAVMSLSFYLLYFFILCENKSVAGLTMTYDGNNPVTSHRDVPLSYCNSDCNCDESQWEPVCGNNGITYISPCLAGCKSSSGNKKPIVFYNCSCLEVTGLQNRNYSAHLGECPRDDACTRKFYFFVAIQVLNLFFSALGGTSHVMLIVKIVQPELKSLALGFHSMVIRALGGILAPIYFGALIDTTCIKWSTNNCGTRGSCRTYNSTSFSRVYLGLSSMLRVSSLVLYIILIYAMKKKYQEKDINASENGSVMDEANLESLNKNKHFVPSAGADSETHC
T6 sequence (P11712 whole entry): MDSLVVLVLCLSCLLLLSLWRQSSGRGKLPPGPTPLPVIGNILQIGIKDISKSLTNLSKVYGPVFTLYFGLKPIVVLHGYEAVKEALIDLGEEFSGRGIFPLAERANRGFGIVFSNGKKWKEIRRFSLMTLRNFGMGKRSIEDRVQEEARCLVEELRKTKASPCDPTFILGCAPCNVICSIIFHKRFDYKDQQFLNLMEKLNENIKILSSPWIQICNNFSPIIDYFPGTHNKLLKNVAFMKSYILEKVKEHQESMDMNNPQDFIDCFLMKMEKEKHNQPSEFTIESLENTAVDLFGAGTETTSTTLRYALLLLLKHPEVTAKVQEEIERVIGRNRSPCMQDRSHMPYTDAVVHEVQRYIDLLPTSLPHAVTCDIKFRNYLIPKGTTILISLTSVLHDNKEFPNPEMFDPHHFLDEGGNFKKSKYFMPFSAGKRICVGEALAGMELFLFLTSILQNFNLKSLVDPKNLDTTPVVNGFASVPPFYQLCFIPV
Sequence of CYP2C19 (P33261 whole entry): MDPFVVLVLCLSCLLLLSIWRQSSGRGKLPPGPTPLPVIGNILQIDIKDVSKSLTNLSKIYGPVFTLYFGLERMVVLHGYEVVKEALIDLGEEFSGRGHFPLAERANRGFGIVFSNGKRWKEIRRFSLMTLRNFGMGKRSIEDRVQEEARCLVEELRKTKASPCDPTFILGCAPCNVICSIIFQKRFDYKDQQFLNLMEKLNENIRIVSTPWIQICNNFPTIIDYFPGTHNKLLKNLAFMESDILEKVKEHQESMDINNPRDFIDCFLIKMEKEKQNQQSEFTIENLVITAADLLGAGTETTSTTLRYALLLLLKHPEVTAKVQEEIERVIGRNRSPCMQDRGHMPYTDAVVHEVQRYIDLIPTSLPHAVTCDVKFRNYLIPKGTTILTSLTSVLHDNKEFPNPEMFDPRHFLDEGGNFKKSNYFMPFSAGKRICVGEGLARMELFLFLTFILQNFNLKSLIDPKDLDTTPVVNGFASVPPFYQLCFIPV

## O=C1N[C@H](c2cncc(C#Cc3ccccc3)c2)[C@@H](c2ccccc2Cl)O1 [Compound 1 Form A, (4R,5R)-5-(2-chlorophenyl)-4-(5-(phenylethynyl)pyridin-3-yl)oxazolidin-2-one]
P-glycoprotein (P-gp)
  IC50: 27.7 µM
OATP1B3
  IC50: 32 µM
CYP1A2 [1]; CYP1A2, relative activity of factors method
  predicted contribution to total metabolism: 43.1%
CYP1A2 [1]; Supersomes, CYP1A2
  CLint: 0.261 μL/min/pmol CYP
CYP1A2 [1]; human, Supersomes over-expressing human CYP1A2, Supersomes, CYP1A2
  half-life: 1.07 h
CYP2C8
  IC50: 52.1 µM
BSEP
  IC50: 13.9 µM
CYP2D6 [2]
  metabolism dependent inhibition of CYP2D6: not a metabolism dependent inhibitor
CYP2C9
  IC50: 12.4 µM
CYP1A2 [3]
  IC50: 1.95 µM
CYP3A4 [4]; atorvastatin only
  IC50: 55.7 µM
CYP3A4 [4]; midazolam as substrate
  inhibition of CYP3A4: no inhibition
CYP3A4 [4]; nifedipine as substrate
  inhibition of CYP3A4: no inhibition
CYP3A4 [5]
  metabolism dependent inhibition of CYP3A4: not a metabolism dependent inhibitor
OATP1B1
  IC50: 6.74 µM
CYP3A4 [6]; CYP3A4, relative activity of factors method
  predicted contribution to total metabolism: 38.9%
CYP3A4 [6]; Supersomes, CYP3A4
  CLint: 0.0786 μL/min/pmol CYP
CYP3A4 [6]; human, Supersomes over-expressing human CYP3A4, Supersomes, CYP3A4
  half-life: 2.93 h
CYP2D6 [7]; CYP2D6, relative activity of factors method
  predicted contribution to total metabolism: 18%
CYP2D6 [7]; Supersomes, CYP2D6
  CLint: 0.984 μL/min/pmol CYP
CYP2D6 [7]; human, Supersomes over-expressing human CYP2D6, Supersomes, CYP2D6
  half-life: 0.233 h
CYP2D6 [8]
  inhibition of CYP2D6: no inhibition
CYP2C19
  IC50: 6.17 µM
